From patent US20250186403A1 (ARIZONA BOARD OF REGENTS ON BEHALF OF THE UNIVERSITY OF …, priority 2022, published 2025)
Values joined by “and” are separate entries in the source; they are usually repeats but may differ in a detail not shown here. Equal values may be shown once. Read-outs that look alike come from different tables or passages of the source.

Columns and labels:
C. amylolentus = assay: MIC by microdilution method; assay type: cell-based
Method: (§1) Serial double dilution of the CMN was done in the RPMI-MOPS medium. Freshly grown fungal culture from the SD agar plate was resuspended in sterile water and diluted to get 0.1 OD at 600 nm. […] The plates were incubated at 30° C. for 48 h. Plates were checked for growth by visual observation. For Afu, resazurin was added to 44 µM and incubated for 12 h at 37° C. before noting a change in color from blue to pink by live cells. MIC is defined as the minimum concentration at which there is no growth when observed visually.

C. gattii (NIH444) = assay: MIC by microdilution method; assay type: cell-based; conditions: Cryptococcus gattii, visual, 48 h, 30° C.
Method: as §1

[1] = system: C. neoformans (Cne-Mut), inteinless mutant strain; assay: MIC by microdilution method; assay type: cell-based; conditions: Cryptococcus neoformans, 48 h
Method: as §1

C. neoformans (Cne-WT) = assay: MIC by microdilution method; assay type: cell-based; conditions: Cryptococcus neoformans, 48 h
Method: as §1

[2] = system: Cne-WT in RAW 264.7 macrophages; assay: Phagocytosis assay (macrophage intracellular infection model); assay type: cell-based, Cryptococcus neoformans; conditions: for reduction of intracellular Cne in macrophages: 24 h, macrophage lysate
Method: FIGS. 1B, 1C, and 1D show phagocytosis assays. RAW 264.7 cells were seeded in 24 well plates and differentiated into macrophages using PMA. Media was replaced with fresh media containing opsonized Cne-WT and incubated at 37° C. for 8 h. Cells were washed 3 times with PBS to remove non-phagocytosed fungal cells. […] Culture supernatants were diluted and plated onto SD agar plates for tittering the fungal load. The cells were washed thrice with PBS and homogenized with a small homogenizer, diluted, and plated on SD agar plates. Colonies were counted after 72 h. […] Treatment groups were compared with unpaired Student's t-test. p<0.05 is considered significant. […] Insert: enlarged view of the phagocytosed Cne cells. The cells were permeabilized with methanol and stained with Giemsa stain. CFU: […] Cne: Cryptococcus neoformans.
Phagocytosis assay: Mouse monocyte/macrophage-like cells RAW 264.7 were seeded in the six-well plate in DMEM media with 10% FBS and incubated at 37° C. in a CO2 incubator. Once it reached 70% confluently, the cells were differentiated into macrophages by replacing the culture supernatant with fresh media containing 100 nM phorbol 12-myristate 13-acetate (PMA) and incubated at 37° C. for 48 h in a CO2 incubator. Differentiated cells in six-well plates were washed once with PBS to remove loosely bound cells. Cne-WT cells were grown overnight in the SD broth media and washed thrice in 0.1 mM PBS, opsonized with 20% human complement serum (Sigma, USA) and 20 μg glucuronoxylomannan specific antibody (clone 18B7, EMD Millipore, USA) by incubating at 37° C. for 30 min with rotating end to end. The Cne cells were washed thrice with PBS to remove unbound antibodies and serum components. The opsonized Cne cells were added to the macrophages at 1:10 ratio and incubated at 37° C. for 10 h. […] The fungal load in the media and the cells was estimated. For tittering, 100 μl of the culture supernatant was plated onto the SD-agar plates with tenfold dilutions. The cells were washed with PBS, scraped, and harvested in PBS, homogenized with a disposable homogenizer. A volume of 30 μl was mixed with 60 μl SD media and plated onto the SD agar plates. The plates were incubated at 30° C. for 72 h, and colonies were counted.

Cne-WT = assay: Fungistatic/fungicidal assay (MFC); assay type: cell-based, Cryptococcus neoformans
Method: The assay was performed by microdilution method as explained in materials and method. […] Cells in the wells were mixed by pipetting, and 30 μl of the culture taken from each well was plated onto SD agar plates. […] The MFC is the minimum drug concentration where there are no colonies. If the ratio of MFC/MIC≤4 is considered fungicidal.
Freshly grown Cne-WT colony on SD agar plate was resuspended in sterile water to give an OD600 of 0.1. This fungal suspension was further diluted at 1:500 in RPMI-MOPS media. A volume of 100 μl of the final cell suspension was added to each well in the assay plates. Additionally, 100 μl of final cell suspension was plated onto the SD agar plate to examine the actual cell count; and colonies were counted after 3 days. The assay plates were incubated at 30° C. for 48 h in a humidified incubator. The culture wells were mixed with micropipette tips, and 20 μl of the culture along with 70 μl RPMI-MOPS was plated onto the SD agar plates (100 mm) and incubated at 30° C. for 72 h before counting the colonies. […] The ratio of MFC/MIC≤4 was considered fungicidal and >4 as fungistatic.

[3] = Cytotoxicity (Cell Counting Kit-8); assay type: cell-based; conditions: human, A549 cells
Method: (§2) FIGS. 4A, 4B, and 4C show in vitro and in vivo toxicity. […] A549 and RAW 264.7 cells were grown in 96 well plates till 70% confluent. RAW 264.7 cells were differentiated into macrophages using PMA. […] The cell viability was estimated by Cell Counting Kit-8 (GlpBio, CA, USA), and absorbance was read at 450 nm using microplate reader Synergy H1 (BioTek). CC50 was calculated by GraphPad prism. […] Abs: absorbance. […] Bodyweight and other parameters were monitored daily (Table 3).
Approximately 2×10^4 A549 cells in MEM media with 10% FBS were seeded per well of 96 well plates and incubated at 37° C. to reach 70% confluent. […] The plates were incubated for 48 h before the addition of 10 μl water-soluble […] (Cell counting kit-8, Glpbio Technology) to each well and incubated at 37° C. for 3 h.

[4] = Cytotoxicity (Cell Counting Kit-8); assay type: cell-based, murine; conditions: mouse, PMA-differentiated RAW 264.7 macrophage cells, PMA-differentiated RAW 264.7 cells
Method: as §2
Cells were seeded in 96 well plates at 1.5×10^4 cells/well of 96 well plates in DMEM media and incubated at a CO2 incubator at 37° C. for 24 h. For differentiation to macrophages, the media was replaced with fresh media containing 100 nM PMA and further incubated for 48 h in a CO2 incubator.

[5] = Cryptococcus neoformans, RAW264.7, 24 h, read-out: inhibition of released Cne

## CNc1ccc2oc(C[C@H]3O[C@@]4(CC[C@H]3C)O[C@H]([C@H](C)C(=O)c3ccc[nH]3)[C@H](C)C[C@H]4C)nc2c1C(=O)O [CMN, calcimycin]
C. amylolentus; C. amylolentus, visual, 48 h, 30° C.
  MIC: > 26.1 µg/mL and > 50 µM
C. amylolentus; natural inteinless cryptococcal sp. Cam
  growth inhibition: no inhibition was observed
C. gattii (NIH444)
  MIC: 1.5 µg/mL and 3 µM
[1]
  MIC: 25.1 µg/mL and 48 µM
C. neoformans (Cne-WT)
  MIC: 1.5 µg/mL
C. neoformans (Cne-WT); Cne-WT, visual, 30° C., read-out: MIC
  MIC: 3 µM
[2]; 0.3 μg/ml CMN
  reduction of intracellular Cne in macrophages: 23%
[2]; 0.6 μg/ml CMN
  reduction of intracellular Cne in macrophages: 50%
[2]; CMN
  reduction of intracellular Cne in macrophages: 72%
[2]; [5]
  inhibition at 0.3 µg/mL: 41%
  inhibition at 0.6 µg/mL: 59%
  inhibition at 1.3 µg/mL: 69%
[2]; at 0.3 μg/ml
  released Cne (significance): significantly reduced
[2]; at 0.6 μg/ml
  growth of intracellular Cne in macrophages (significance): significantly reduced
Cne-WT
  nature of inhibition (fungistatic/fungicidal): fungistatic (>4 as fungistatic)
Cne-WT; Cryptococcus neoformans, 48 h culture, plated, colonies day 3, read-out: MFC (minimum fungicidal concentration)
  MFC: > 26 µg/mL
[3]
  CC50 at 48 h: 16.3 µM and 8.6 µg/mL
[4]
  CC50 at 48 h: 8.6 µM and 4.5 µg/mL
